In patent publication US12232496B2, “Methods and system for stimulating root exudation in plants” (YEDA RESEARCH AND DEVELOPMENT CO. LTD, priority 2018, dated 2025):

Test system: Catharanthus roseus
Test: Split-root Catharanthus roseus seedlings: Root A stimulated, exudates analysed by MRM-LC-MS/MS
Format: in vivo
Details: applied to Root A; Root B exudate a week after stimulation; FIG. 16B
Procedure: Split roots are generated by cutting off the primary root. Lateral roots are then regenerated until they are long enough for the lateral roots to be placed directly in separate hydroponics or aeroponics containers. Each container is fed with plant medium.
Catharanthus roseus were grown, and split roots were obtained using the methods of Example 2. After lateral roots emerged, roots were aseptically placed separately in two 20 ml glass containers containing 0.5× Hoagland nutrient solution. Similar to Example 8, Root A of seedlings was stimulated with methyl-jasmonate, while growing in hydroponics using plant nutrient medium. Plants were incubated at 24° C. with a photoperiod of 16 h. A week after stimulation, the plant medium containing exudates from Root A and B were collected, filtered and extracted for LC-MS analysis. FIG. 16A depicts the MRM-LC-MS/MS analysis of C. roseus exudates. Vinca alkaloids present in the exudates of Root B after methyl jasmonate stimulation (FIG. 16A, top) and control plants (FIG. 16A, bottom) were analyzed via total ion current chromatograms. The quantification of three vinca alkaloids (19S-Vindolinine_RT_3.93, Vindolinine_RT_4.96, and Catarantine_11.77) was performed using an external standard curve of these three metabolites (FIG. 16B). […]

`CC/C=C\CC1C(=O)CCC1CC(=O)OC` (stereo not shown) [Methyl jasmonate, methyl jasmonate] was tested, and the “Vindolinine found in Root B exudate of treated plants, fold increase” value was “up to 32 ×”.
